Earlier results, collected in US20230381309A1, “METHODS OF TREATING DIFFUSE LARGE B-CELL LYMPHOMA” (IMMUNOVACCINE TECHNOLOGIES INC., priority 2020, published 2023).
Like-named read-outs stand apart in the source and are kept apart here.

System: relapsed/refractory DLBCL

For “nivolumab: PD1 antibody (Opdivo; Bristol-Myers Squibb)”, the objective response rate (patients having failed autologous transplantation) is given as 10% and the objective response rate (patients ineligible for autologous transplantation) is given as 3%.
